# Experimental data: ChEMBL document CHEMBL2062440, “Isolation of spirastrellolides A and B from a marine sponge Epipolasis sp. and their cytotoxic activities” (J Nat Prod, 2012)
# Test system: HeLa
# Assay: Cytotoxicity against human HeLa cells after 72 hrs by MTT assay
# Format: functional, cell-based
row,SMILES,IC50 [nM]
1,COC(=O)[C@H](O)C/C=C\C/C=C/C[C@@H]1O[C@@]23C[C@@H]1OC(=O)C[C@H]1CCC[C@@H](C[C@@H](O)C[C@H](O)C[C@H]4O[C@]5(C=C[C@@H]4C)CC[C@H](OC)[C@H](O5)[C@@H](O)[C@@H](O)[C@@H](C)CC[C@H]4O[C@@](CC[C@@H]2C)(C[C@@H](OC)[C@@H]4Cl)O3)O1 [SPIRASTRELLOLIDE A METHYL ESTER],30
2,CO[C@H]1CC[C@]23C=C[C@H](C)[C@@H](C[C@@H](O)C[C@H](O)C[C@@H]4CCC[C@H](CC(=O)O[C@H]5C[C@@]6(O[C@H]5C/C=C/C/C=C\C[C@@H](O)C(=O)O)O[C@]5(CC[C@@H]6C)C[C@@H](OC)[C@H](Cl)[C@@H](CC[C@H](C)[C@H](O)[C@H](O)[C@H]1O2)O5)O4)O3 [SPIRASTRELLOLIDE A],20
3,COC(=O)[C@H](O)C/C=C\C/C=C/C[C@@H]1O[C@@]23C[C@@H]1OC(=O)C[C@H]1CCC[C@@H](C[C@@H](O)C[C@H](O)C[C@H]4O[C@@]5(CC[C@H](OC)[C@H](O5)[C@@H](O)[C@@H](O)[C@@H](C)CC[C@@H]5C[C@H](OC)C[C@](CC[C@@H]2C)(O5)O3)CC[C@@H]4C)O1 [SPIRASTRELLOLIDE B METHYL ESTER],70
4,CO[C@H]1C[C@H]2CC[C@H](C)[C@H](O)[C@H](O)[C@H]3O[C@]4(CC[C@@H]3OC)CC[C@H](C)[C@@H](C[C@@H](O)C[C@H](O)C[C@@H]3CCC[C@H](CC(=O)O[C@H]5C[C@@]6(O[C@H]5C/C=C/C/C=C\C[C@@H](O)C(=O)O)O[C@](CC[C@@H]6C)(C1)O2)O3)O4 [SPIRASTRELLOLIDE B],40
